# Assay results reported in US20210032304A1, “FIBROBLAST GROWTH FACTOR ANALOGS AND USES THEREOF” (University of Florida Research Foundation, Inc., priority 2018, published 2021).
# Residues, ends and D or L forms follow the SMILES beside them.
# T1: FGFR-1 alpha IIIb, P11362
# T1 chain: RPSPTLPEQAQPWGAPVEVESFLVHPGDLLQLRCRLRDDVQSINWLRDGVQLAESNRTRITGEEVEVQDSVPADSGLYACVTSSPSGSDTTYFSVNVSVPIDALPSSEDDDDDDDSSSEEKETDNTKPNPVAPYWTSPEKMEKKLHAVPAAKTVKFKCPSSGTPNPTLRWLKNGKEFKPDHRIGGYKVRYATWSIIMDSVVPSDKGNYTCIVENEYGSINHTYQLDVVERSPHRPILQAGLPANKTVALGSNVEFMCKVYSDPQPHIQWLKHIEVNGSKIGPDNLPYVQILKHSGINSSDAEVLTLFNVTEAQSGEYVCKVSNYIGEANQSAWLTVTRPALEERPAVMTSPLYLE
# What was measured:
# [1] = tested on: radiation damage (sub-TBI) in Swiss male mice; assay: Sub-TBI irradiation model, survival and body weight over 30 days; type: in vivo; settings: for dose needed to gain survival benefit: sub-TBI NIH Swiss model
# Procedure: 150 outbred stock (NIS) Swiss males (8-11 weeks) were subjected to 5 sub-TBI doses (0, 18, 19.5, 20.5, 21.5 Gy). Three single dosages of FGF-P were administered 24 hr post-IR (5.0, 10, and 20 mg/kg), and two single dosages of FGF-PT were administered 24 hr post-IR (10 and 20 mg/kg). One dosage of FGF2 (0.3 mg/kg) and a saline vehicle control was also administered. Animals were followed for signs of distress, survivors, and weight loss/gain for 30 days. Survivors at the end of 30 days were euthanized.
# Radiation doses were chosen to bracket the highest dose with few or no deaths (LD20) and the lowest dose with few or no survivors (LD80), thus ensuring a range that includes the LD50 and statistically delivers the highest accuracy and precision per animal.
# [2] = target: FGFR-2 alpha IIIc (Homo sapiens, UniProt P21802); assay: SPR (Horiba XelPlex), receptor immobilised, analyte in flow; given as 'associative binding constants'
# [3] = target: T2, FGFR-1 alpha IIIc (Homo sapiens, UniProt P11362); assay: as above
# [4] = target: T1, FGFR-1 alpha IIIb, P11362; assay: as above
# [5] = target: T2, FGFR-1 alpha IIIc; assay: SPR (Horiba XelPlex), ratio to rhFGF2 on the same receptor
# [6] = target: T1, FGFR-1 alpha IIIb, P11362; assay: as above
# [7] = 18 Gy sub-TBI, single dose 24 hr post-IR, different doses, 30 days
# [8] = 19.5 Gy sub-TBI, all doses, single dose 24 hr post-IR
# [9] = 20.5 Gy sub-TBI, many doses, particularly FGF-P 5-20 mg/kg
Molecule,"survival [1, 8]","survival [1, 9]",dose needed to gain survival benefit [1] [mg/kg],Kd [3] [nM],further results
"CC(C)C[C@@H]1NC(=O)[C@H](C)NC(=O)[C@H](C(C)C)NC(=O)[C@H](Cc2ccc(O)cc2)NC(=O)[C@H](Cc2c[nH]c3ccccc23)NC(=O)[C@H](CO)NC(=O)[C@H]([C@@H](C)O)NC(=O)[C@H](Cc2ccc(O)cc2)NC(=O)[C@H](CCCCN)NC(=O)[C@H](CCCNC(=N)N)NC(=O)[C@H](CO)NC(=O)[C@H](CCCNC(=N)N)NC(=O)[C@H](Cc2ccc(O)cc2)NC(=O)[C@@H](N)CSSC[C@@H](C(=O)O)NC(=O)[C@H](CCCNC(=N)N)NC(=O)[C@H](CCCCN)NC1=O [FGF-PT] (HELM PEPTIDE1{C.Y.R.S.R.K.Y.T.S.W.Y.V.A.L.K.R.C}$PEPTIDE1,PEPTIDE1,1:R3-17:R3$$$V2.0; N-terminus and C-terminus assumed)",Improved survival,Improved survival,10,,"survival [1, 7]: Improved survival; weight recovery [1, 7]: weight recovery; weight recovery ([1]; 19.5 Gy sub-TBI, different doses, recovery after severe weight loss): weight recovery; weight recovery ([1]; 20.5 Gy sub-TBI, different doses, recovery after very severe weight loss): weight recovery"
recombinant human basic FGF (rhFGF2) (from UniProt P09038 143-288) (ligand),,,,0.83,Kd [2]: 1.7 nM
rhFGF2: recombinant human basic FGF,Improved survival,Improved survival,0.3,,
YRSRKYTSWYVALKR (modifications not checked) [FGF-PT],,,,1000,Kd [4]: 1500 nM; fold of binding constant against rhFGF2 [5]: 1000 fold; fold of binding constant against rhFGF2 [6]: 1000 fold
